Assay results published in ChEMBL document CHEMBL1201862, “PubChem BioAssay data set” (2004).
Calls of active or inactive are those of the source.

Tests used:
[1] = viability loss in Vero cells – cytotoxicity control for Vif-APOBEC3G degradation inhibitor project, dose response (AID 1117358); format: functional; settings: Vero
[2] = target: T1, Carboxy-terminal domain RNA polymerase II polypeptide A small phosphatase 1 (Homo sapiens, UniProt Q9GZU7); assay: CTDSP1 inhibitors, concentration-response, biochemical, absorbance readout, ultra-high-throughput screen actives (AID 540297); format: functional
T1 sequence (Q9GZU7 whole entry): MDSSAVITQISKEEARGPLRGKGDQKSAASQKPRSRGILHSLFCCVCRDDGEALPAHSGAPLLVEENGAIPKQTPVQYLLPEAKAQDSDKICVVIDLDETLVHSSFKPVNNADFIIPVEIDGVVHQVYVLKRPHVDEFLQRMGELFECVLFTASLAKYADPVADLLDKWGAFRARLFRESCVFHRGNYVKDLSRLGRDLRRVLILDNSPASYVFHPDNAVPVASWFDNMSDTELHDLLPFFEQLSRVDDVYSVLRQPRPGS

[3] = target: Protein Tat (Human immunodeficiency virus type 1 group M subtype B (isolate HXB2)(HIV-1), UniProt P04608); format: functional;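 further: tat binding to TAR RNA read out by fluorescence polarization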
[4] = target: DNA dC->dU-editing enzyme APOBEC-3A (Homo sapiens, UniProt P31941); assay: Dose Response confirmation of small molecule APOBEC3A DNA Deaminase Inhibitors via a fluorescence-based single-stranded DNA deaminase assay. [Related pubchem assays (depositor defined):AID493011, AID493024]; format: functional
[5] = target: DNA dC->dU-editing enzyme APOBEC-3G (Homo sapiens, UniProt Q9HC16); format: functional;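 further: Dose-response counterscreen measuring inhibition of APOBEC3G DNA deaminase activity, run while confirming APOBEC3A inhibitors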
[6] = test system: HT-1080; assay: HT1080 cell viability loss – fluorescence readout (AID 620); format: functional, cell-based; settings: Homo sapiens
[7] = target: E3 ubiquitin-protein ligase Mdm2 (Homo sapiens, UniProt Q00987); assay: MDM2-luc reporter signal enhancers, multi-concentration potency testing, MDM2 ubiquitin-protein ligase inhibitor program, whole-cell format, luminescence detection, 384-well microplate (AID 1394); format: functional;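 further: MDM2 E3 inhibitors raise luminescence so EC50 is for signal enhancement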
[8] = viability loss in human Jurkat cells – cell-based, luminescence, cytotoxicity control for P. falciparum gametocyte viability project, dose response (AID 1117277); format: functional;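 further: potency reflects loss of cellular ATP meaning fewer viable cells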
[9] = viability inhibitors of stage V gametocytes – luminescence, dose response (AID 1117278); format: functional, cell-based;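 further: gametocytes exposed to compound for 24 hours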
[10] = target: DNA damage-inducible transcript 3 protein (Mus musculus, UniProt P35639); format: functional, Cricetulus griseus
[11] = HIV-1 Vif–A3G interaction blockers – biochemical, TR-FRET, GST-Vif 1-94, biotin-A3G peptide, dose response retest, primary screen (AID 1117319); format: functional;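 further: TR-FRET signal of purified GST-Vif binding a biotinylated A3G peptide; inhibitors lower the FRET signal by blocking Vif and A3G binding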
[12] = MIN6 cell viability loss – mouse insulinoma, cytotoxicity control, dose response (AID 2122); format: functional;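 further: confirmatory high-throughput counterscreen run to flag cytotoxic compounds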
[13] = cells; format: functional, cell-based
[14] = viability of uninfected HEp-2 cells – cell-based, HTS, cytotoxicity control for RSV inhibitor project, dose response (AID 2410); format: functional; settings: human respiratory syncytial virus
[15] = target: T2, Nuclear receptor subfamily 0 group B member 1 (Homo sapiens, UniProt P51843); format: functional, cell-based;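 further: HEK293T cells transfected with SF-1 and DAX-1 plus StAR promoter luciferase reporter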
T2 sequence (P51843 whole entry): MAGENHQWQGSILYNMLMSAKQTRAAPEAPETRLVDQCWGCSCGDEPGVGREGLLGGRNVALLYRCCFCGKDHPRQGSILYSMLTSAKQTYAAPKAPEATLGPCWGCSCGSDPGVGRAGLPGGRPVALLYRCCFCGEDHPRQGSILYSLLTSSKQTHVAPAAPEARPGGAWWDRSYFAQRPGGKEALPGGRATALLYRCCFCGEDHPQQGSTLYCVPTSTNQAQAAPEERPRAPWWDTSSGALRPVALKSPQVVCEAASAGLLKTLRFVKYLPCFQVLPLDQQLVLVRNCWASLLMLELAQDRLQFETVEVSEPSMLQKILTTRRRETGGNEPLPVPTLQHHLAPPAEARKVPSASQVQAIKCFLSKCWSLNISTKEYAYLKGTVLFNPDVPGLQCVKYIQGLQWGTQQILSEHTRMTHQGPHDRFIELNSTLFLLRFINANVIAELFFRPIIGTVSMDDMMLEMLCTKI

[16] = decrease of insulin promoter-GFP reporter – imaging, high-content screening, mouse beta cells (AID 1628); format: functional; settings: MIN6
[17] = test system: Vero; assay: cells; format: functional; settings: Chlorocebus sabaeus
[18] = Luminescence Cell-Based Dose Retest to Confirm Inhibitors of Cancer Stem Cells. [Related pubchem assays (depositor defined):AID2717, AID2721]; format: functional; settings: Homo sapiens
[19] = target: T3, Sentrin-specific protease 8 (Homo sapiens, UniProt Q96LD8); format: functional
T3 sequence (Q96LD8 whole entry): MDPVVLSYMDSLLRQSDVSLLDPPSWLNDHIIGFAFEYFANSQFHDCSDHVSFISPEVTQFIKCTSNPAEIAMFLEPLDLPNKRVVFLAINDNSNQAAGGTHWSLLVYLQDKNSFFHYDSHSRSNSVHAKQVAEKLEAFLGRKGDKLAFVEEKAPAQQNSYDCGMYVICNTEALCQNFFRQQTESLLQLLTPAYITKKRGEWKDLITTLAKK

[20] = NIH3T3 cell viability loss – ATP luminescence, mouse fibroblasts, counter-screen, dose response (AID 2010); format: functional, cell-based;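 further: cells exposed to compound for about 90 hours before reading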
[21] = cells
[22] = target: T3, Sentrin-specific protease 8; format: functional; remark: listed apart in the source
[23] = Trypanosoma cruzi growth suppression in host cells – NIH3T3 host cells, beta-gal luminescence, confirmation (AID 2044); format: functional, cell-based;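 further: intracellular parasites grown in NIH/3T3 mouse fibroblasts as host cells; luminescent beta-galactosidase reporter signal from transgenic T. cruzi replicating inside host cells; inhibitors lower the luminescence signal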
[24] = Late-stage results from the probe development effort to identify antagonists of arginine vasopressin receptor 1a (AVPR1a): fluorescence-based cell-based dose response AVPR1a inhibition assay.; format: functional
[25] = target: Vasopressin V2 receptor (Homo sapiens, UniProt P30518); assay: Late-stage results from the probe development effort to identify antagonists of arginine vasopressin receptor 1a (AVPR1a): fluorescence-based cell-based dose response AVPR2 inhibition counterscreen assay.; format: functional
[26] = Late-stage results from the probe development effort to identify antagonists of arginine vasopressin receptor 1a (AVPR1a): fluorescence-based cell-based dose response OXTR inhibition counterscreen assay.; format: functional
[27] = target: Vasopressin V1b receptor (Homo sapiens, UniProt P47901); assay: Late-stage results from the probe development effort to identify antagonists of arginine vasopressin receptor 1a (AVPR1a): fluorescence-based cell-based dose response AVPR1b inhibition counterscreen assay.; format: functional
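Wherever AC50 is given: cells exposed to compound for roughly 70 hours or longer before luminescence read.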

Sequence of E3 ubiquitin-protein ligase Mdm2 (Q00987 whole entry): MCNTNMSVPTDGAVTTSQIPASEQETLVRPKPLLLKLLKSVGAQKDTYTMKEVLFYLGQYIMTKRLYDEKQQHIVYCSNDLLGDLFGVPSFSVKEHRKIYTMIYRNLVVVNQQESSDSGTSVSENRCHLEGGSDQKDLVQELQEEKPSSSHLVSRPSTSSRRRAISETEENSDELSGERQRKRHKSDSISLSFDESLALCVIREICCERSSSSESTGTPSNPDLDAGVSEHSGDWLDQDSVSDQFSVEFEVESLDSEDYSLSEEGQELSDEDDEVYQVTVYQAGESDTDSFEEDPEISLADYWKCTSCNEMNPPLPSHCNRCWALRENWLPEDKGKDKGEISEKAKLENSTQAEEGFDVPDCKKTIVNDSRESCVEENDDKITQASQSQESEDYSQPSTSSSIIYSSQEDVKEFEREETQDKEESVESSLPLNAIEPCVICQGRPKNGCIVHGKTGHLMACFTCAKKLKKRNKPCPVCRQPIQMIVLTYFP
Sequence of DNA damage-inducible transcript 3 protein (P35639 whole entry): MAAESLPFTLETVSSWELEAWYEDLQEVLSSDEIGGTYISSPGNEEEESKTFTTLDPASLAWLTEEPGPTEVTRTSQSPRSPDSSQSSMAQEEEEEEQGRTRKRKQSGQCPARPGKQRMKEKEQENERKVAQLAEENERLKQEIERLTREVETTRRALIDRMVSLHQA
Sequence of Vasopressin V2 receptor (P30518 whole entry): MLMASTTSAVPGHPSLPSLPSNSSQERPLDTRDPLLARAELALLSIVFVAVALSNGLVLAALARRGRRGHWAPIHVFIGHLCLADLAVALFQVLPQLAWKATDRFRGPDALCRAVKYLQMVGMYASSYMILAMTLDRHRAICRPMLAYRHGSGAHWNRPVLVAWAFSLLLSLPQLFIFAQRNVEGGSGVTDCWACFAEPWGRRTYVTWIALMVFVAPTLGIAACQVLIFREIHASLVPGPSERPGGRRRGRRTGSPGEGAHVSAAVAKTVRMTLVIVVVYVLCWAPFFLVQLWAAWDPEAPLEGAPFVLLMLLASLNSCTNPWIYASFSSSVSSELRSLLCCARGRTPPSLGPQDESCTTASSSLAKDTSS
Sequence of Vasopressin V1b receptor (P47901 whole entry): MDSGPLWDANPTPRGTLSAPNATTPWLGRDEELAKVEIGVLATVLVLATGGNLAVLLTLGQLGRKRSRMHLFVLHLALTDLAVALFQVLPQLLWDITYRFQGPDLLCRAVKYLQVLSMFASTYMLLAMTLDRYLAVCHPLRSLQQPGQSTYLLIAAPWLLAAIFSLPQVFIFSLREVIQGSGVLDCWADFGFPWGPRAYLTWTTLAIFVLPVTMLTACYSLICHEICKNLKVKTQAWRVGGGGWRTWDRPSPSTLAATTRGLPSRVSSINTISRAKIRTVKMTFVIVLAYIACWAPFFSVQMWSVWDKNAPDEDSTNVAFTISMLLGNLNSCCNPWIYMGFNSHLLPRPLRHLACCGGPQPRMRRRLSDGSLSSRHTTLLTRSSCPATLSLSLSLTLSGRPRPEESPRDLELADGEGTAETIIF
Sequence of Protein Tat (P04608 whole entry): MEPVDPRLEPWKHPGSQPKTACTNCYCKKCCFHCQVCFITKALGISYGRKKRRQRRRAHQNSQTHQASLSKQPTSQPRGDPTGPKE
Sequence of DNA dC->dU-editing enzyme APOBEC-3A (P31941 whole entry): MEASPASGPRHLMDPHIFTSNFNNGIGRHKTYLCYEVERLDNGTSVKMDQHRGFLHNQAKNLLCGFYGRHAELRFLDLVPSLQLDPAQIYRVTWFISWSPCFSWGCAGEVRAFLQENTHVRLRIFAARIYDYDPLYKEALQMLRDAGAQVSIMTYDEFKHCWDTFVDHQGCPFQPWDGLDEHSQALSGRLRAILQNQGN
Sequence of DNA dC->dU-editing enzyme APOBEC-3G (Q9HC16 whole entry): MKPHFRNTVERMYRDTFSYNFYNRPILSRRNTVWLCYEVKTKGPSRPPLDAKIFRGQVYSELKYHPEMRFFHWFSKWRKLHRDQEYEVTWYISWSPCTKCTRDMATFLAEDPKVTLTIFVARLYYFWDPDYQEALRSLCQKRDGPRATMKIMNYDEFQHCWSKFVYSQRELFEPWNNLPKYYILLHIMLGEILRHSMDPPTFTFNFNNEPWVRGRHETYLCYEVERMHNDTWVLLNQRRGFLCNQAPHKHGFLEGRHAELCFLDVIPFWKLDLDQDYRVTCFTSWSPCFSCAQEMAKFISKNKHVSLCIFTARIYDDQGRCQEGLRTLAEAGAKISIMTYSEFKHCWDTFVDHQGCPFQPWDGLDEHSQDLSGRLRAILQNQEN

Cc1cc(Cl)c(S(=O)(=O)NCC2CCCO2)cc1OCC(=O)NC1CCCCC1 (stereo unspecified)
CC50 [1]: > 40 µM (active)

CCOC(=O)C1=C(COC(=O)/C=C/c2ccco2)NC(=O)NC1C (stereo unspecified)
IC50 [2]: 4.25 µM (active) | IC50 [3]: > 100 µM (active) | IC50 [4]: 15.9 µM (active) | IC50 [5]: 28.4 µM (active)

Cc1ccc(NC2=Nc3ccccc3CC2)cc1
EC50 [6]: > 50 µM (not active)

CC1=C(C(=O)NC(C)CCc2ccccc2)C2(CCC(C)CC2)OC1=O (stereo unspecified)
EC50 [7]: 78.3 µM (not active)

COc1ccc(CCN(C)CCCN2CC(c3ccccc3)CC2=O)cc1OC (stereo unspecified)
IC50 [8]: > 83.3 µM (inactive) | IC50 [9]: > 109 µM (inactive)

Cc1nc2nc(C)c(CCC(=O)NC3CCCCC3)c(C)n2n1
IC50 [8]: > 83.4 µM (inactive) | IC50 [9]: > 109 µM (inactive)

Oc1ccc(Cl)cc1-c1cc(-c2ccccc2)[nH]n1
CC50 [1]: > 40 µM (active) | Absolute IC50 (CHOP) [10]: 10 µM | IC50 [11]: > 100 µM (active)

COc1ccc(/C=C/C(=O)Nc2ccc(C34CC5CC(CC(O)(C5)C3)C4)cc2)cc1OC
EC50 [7]: 3.12 µM (not active) | IC50 [12]: 5.21 µM (active) | IC50 [13]: > 67.5 µM (inactive) | CC50 [14]: 1.48 µM (active) | IC50 [15]: > 0.834 µM (active) | IC50 [16]: 2.17 µM (active) | CC50 [17]: 20.9 µM (active) | AC50 [18]: 0.647 µM (active)

CN(C)CCN(C(=O)c1ccc(N2C(=O)CCC2=O)cc1)c1nc2cc3c(cc2s1)OCO3
IC50 [19]: 24.4 µM (active) | EC50 [20]: > 60 µM (not active) | EC50 [21]: 0.102 µM (active) | IC50 [22]: 33.5 µM (active) | EC50 [23]: < 0.1 µM (active)

Cc1cccc(N2CCC(C(=O)N(CC3CC3)c3ccc(Cl)cc3)CC2)n1
IC50 [24]: 0.0248 µM (active) | IC50 [25]: 6.1 µM (active) | IC50 [26]: 5.1 µM (active) | IC50 [27]: 17.6 µM (inactive)
